Article PMC6941357, “An in vitro toolbox to accelerate anti-malarial drug discovery and development” (Malaria Journal, 2020)
pIC50, pKi: −log10 of the molar value. Values joined by “and” are separate entries in the source; they are usually repeats but may differ in a detail not shown here. Equal values may be shown once.

Assays:
[1] = Solubility in biorelevant media; conditions: for solubility in all media tested: FaSSIF-V2, FeSSIF-V2, PBS pH 7.4
Procedure: Solubility of each active pharmaceutical ingredient was evaluated at 37 °C in pH 7.4 phosphate buffered saline (prepared as described for the partitioning experiments), fasted (FaSSIF-V2) and fed (FeSSIF-V2) state simulated intestinal fluids and fasted state simulated gastric fluid (FaSSGF) as described by Jantratid et al.. […] Samples were vortexed and placed in a 37 °C incubator on an orbital mixer (IKA® VXR basic Vibrax® orbital mixer) set at 600 rpm. Sampling times were 1 h for FaSSGF or 5–6 h for FaSSIF-V2, FeSSIF-V2, and PBS. These times were used to reflect the maximal likely residence times within the stomach and small intestine, respectively. Sampling was carried out by centrifuging each sample at 10,000 rpm for 3 min, transferring 300 µL aliquots into fresh Eppendorf tubes and centrifuging these tubes again at 10,000 rpm for 3 min. Triplicate aliquots of the supernatant were then removed and diluted 1:2 in 50% aqueous methanol and then again in 50% aqueous acetonitrile to be within the analytical concentration range. Samples were analysed by LC–MS along with calibration standards (Additional file 1: Table S2).

physchem = conditions: for An (absorption number): Peff × tres/R, minimum 1; for Ssi (estimated solubility in the small intestine): based on measured FaSSIF solubility; for Permeability classification: based on ref 80 and control compounds; for Predicted human Peff: from Caco-2 Papp via calibration plot
Description: Predicted Peff values were obtained from a calibration plot of literature Peff values vs measured Caco-2 Papp using either buffer or plasma as the transport medium (see Results section).

[2] = target: T1, Albumax medium (lipid rich bovine serum albumin) (Bos taurus, UniProt P02769); assay: Binding in Albumax medium via ultracentrifugation; type: in vitro ADME
T1 construct: purchased Gibco, Thermo Fisher Scientific
T1 sequence (P02769 25-607): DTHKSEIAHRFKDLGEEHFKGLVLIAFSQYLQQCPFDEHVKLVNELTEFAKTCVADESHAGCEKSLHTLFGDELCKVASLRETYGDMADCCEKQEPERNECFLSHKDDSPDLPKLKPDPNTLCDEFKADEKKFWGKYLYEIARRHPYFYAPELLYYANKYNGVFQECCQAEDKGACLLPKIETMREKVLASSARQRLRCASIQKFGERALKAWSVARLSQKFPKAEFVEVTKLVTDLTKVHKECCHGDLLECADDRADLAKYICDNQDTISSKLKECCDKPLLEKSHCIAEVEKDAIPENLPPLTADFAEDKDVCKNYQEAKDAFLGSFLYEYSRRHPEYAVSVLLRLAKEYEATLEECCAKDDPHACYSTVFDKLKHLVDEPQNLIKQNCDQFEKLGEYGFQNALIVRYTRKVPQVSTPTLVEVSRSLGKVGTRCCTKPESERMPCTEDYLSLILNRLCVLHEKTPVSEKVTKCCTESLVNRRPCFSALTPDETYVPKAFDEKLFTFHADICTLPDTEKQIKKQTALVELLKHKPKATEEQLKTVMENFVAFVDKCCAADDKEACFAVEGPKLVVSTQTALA
Procedure: An ultracentrifugation method adapted from a previous publication was initially used to assess plasma protein binding and binding in the other media. […] Additional ultracentrifuge tubes containing spiked matrix were maintained at 37 °C, 5% or 10% CO2 or normal atmosphere conditions, with aliquots being taken within 0.5 h of the start and at the end of ultracentrifugation to serve as controls for the assessment of stability and to obtain a measure of the total concentration (Ctotal). Following ultracentrifugation, the pH was checked and an aliquot of protein-free supernate was taken from each ultracentrifuge tube for determination of the unbound concentration (Cunbound).
Total matrix and protein free samples were analysed using a matrix matching approach whereby each sample was mixed in a 1:1 ratio with the opposite blank medium (i.e. blank total matrix or blank protein free buffer). For example, plasma samples were mixed with blank pH 7.4 buffer whereas plasma supernatant samples were mixed with blank plasma. Each of the sample sets were then assayed against a common calibration curve prepared in a 1:1 mixture of total matrix and protein free pH 7.4 buffer. […] The standard deviation for fu was calculated using the propagation of errors approach as described previously. The potential for compound degradation was assessed by comparing the average value for Ctotal at the start and end of the experiment.

CYP2C9 = CYP2C9 (Homo sapiens, UniProt P11712); assay: in vitro
Chain of CYP2C9 (P11712 whole entry, canonical isoform): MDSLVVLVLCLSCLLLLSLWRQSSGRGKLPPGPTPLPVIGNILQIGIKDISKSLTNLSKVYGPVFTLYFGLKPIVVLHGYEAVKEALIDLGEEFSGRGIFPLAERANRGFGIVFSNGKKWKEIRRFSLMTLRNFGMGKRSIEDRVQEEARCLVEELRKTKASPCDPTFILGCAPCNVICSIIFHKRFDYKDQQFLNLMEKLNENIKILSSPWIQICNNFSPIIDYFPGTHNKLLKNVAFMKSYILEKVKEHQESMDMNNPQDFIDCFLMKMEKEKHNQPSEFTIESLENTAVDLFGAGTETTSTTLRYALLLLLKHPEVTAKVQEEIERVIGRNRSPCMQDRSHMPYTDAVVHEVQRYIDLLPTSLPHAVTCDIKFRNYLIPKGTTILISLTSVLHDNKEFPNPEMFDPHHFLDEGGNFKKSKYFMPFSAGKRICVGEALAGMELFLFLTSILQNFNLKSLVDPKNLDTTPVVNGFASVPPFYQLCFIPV
Procedure: The CYP inhibition assay was based on a previous publication with minor modifications. The method uses human liver microsomes and a substrate-specific interaction approach which relies on the formation of a metabolite that is mediated by a specific CYP isoform. The specific CYP-mediated metabolic pathways, substrates, substrate Km values, positive control inhibitors and specific incubation conditions are shown in Additional file 1: Table S4. […] Samples were quenched by the addition of ice-cold acetonitrile containing diazepam as the analytical internal standard. Concentrations of the substrate-specific metabolites in quenched samples were determined by LC–MS (Additional file 1: Table S5) relative to calibration standards prepared in quenched microsomal matrix.
The inhibitory effect of each test compound and positive control inhibitor was based on the reduction in the formation of the specific CYP-mediated metabolite (represented as percent inhibition of enzyme activity) relative to metabolite formation in the absence of inhibitor (i.e. control for maximal enzyme activity). […] The Km was determined under the same incubation conditions by measuring the rate of metabolite formation (pmol/min/mg protein) as a function of substrate concentration (Additional file 1: Table S4).

[3] = Octanol/pH 7.4 buffer partition coefficient, shake flask; conditions: octanol/pH 7.4 buffer, shake flask, 37 °C
Procedure: Partition coefficients between octanol and pH 7.4 buffer were measured using a shake flask method. A stock solution of test compound in octanol was prepared at a concentration between 3 and 30 mg/mL based on the expected partition coefficient value. This stock solution was then diluted 3- and 10-fold with octanol and used to prepare the octanol phase for the partitioning experiments. Two different dilutions were used to confirm that there were no saturation effects. Phosphate buffered saline was prepared by combining 67 mM disodium hydrogen orthophosphate and sodium dihydrogen orthophosphate (both prepared in 43 mM NaCl) to a final pH of 7.4.
Partitioning experiments were conducted by mixing equal volumes of the octanol (containing test compound) and aqueous phases and placing on a vibrating plate mixer in an incubator at 37 °C. […] An aliquot of the aqueous phase was carefully removed and centrifuged again to ensure no contamination from the octanol phase before sampling in duplicate and diluting with aqueous methanol for analysis. Diluted samples were analysed by LC–MS along with calibration standards (Additional file 1: Table S2) and partition coefficients were calculated from the ratio of the mean octanol to buffer concentration after accounting for the dilution factors. The partitioning results for the two time points were used to confirm that the partitioning experiment had reached equilibrium.

[4] = In vitro metabolism (metabolic stability) in human liver microsomes; conditions: human, liver microsomes, pH 7.4, HLM CLint, human liver microsomes; average of n = 2 replicates; < 7 means < 15% loss over 60 min
Outline: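 Intrinsic clearance (µL/min/mg protein) came from the first-order substrate-depletion rate in human liver microsomes, using only the initial log-linear phase where kinetics deviated. Samples were quenched at 2, 5, 15, 30 and 60 min and quantified by LC–MS. Unbound CLint was obtained by dividing by microsomal fu.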

Structure (SMILES)	Solubility PBS7.4 (5–6 h) ([1]; 37 °C)	SLAD (physchem) [mg]	An (absorption number) (physchem)	Ssi (estimated solubility in the small intestine) (physchem) [µg/mL]	Permeability classification (physchem)	Predicted human Peff (physchem)	Fraction unbound, Albumax [2]	CYP2C9 % inhibition at max conc (CYP2C9; microsomes)	pIC50 (CYP2C9; microsomes)	Solubility FaSSGF (1 h) ([1]; 37 °C)	Solubility FaSSIF-V2 (5–6 h) ([1]; 37 °C)	Solubility FeSSIF-V2 (5–6 h) ([1]; 37 °C)	Measured Log D7.4 [3]	also measured
Cc1cc(Nc2ccc(C(F)(F)F)nc2)n2nc(C(C)(F)F)nc2n1 [DSM421]	85.5 µg/mL and 239 µM	182	3.9	93.0	High (> 85% absorption (high))	3.3 10^−4 cm/s	0.43 ± 0.020							
O=C(NCCN1CCCC1)c1cc(-c2ccc(CN3CCOCC3)cc2)nc2ccc(F)cc12 [M5717]		> 6050	4.0	> 3000	High (> 85% absorption (high))	3.4 10^−4 cm/s	0.55 ± 0.041	nmi	< 4.70					solubility in all media tested ([1]; FaSSGF): > 2 mg/mL
COc1cc(N[C@H](C)CCCN)c2nccc(C)c2c1Oc1ccc(Cl)c(Cl)c1 [NPC1161B]	5.44 µg/mL and 12.5 µM						0.035 ± 0.0020	37%	< 4.70	1520 µg/mL and 3500 µM	19.9 µg/mL and 45.8 µM	> 2000 µg/mL and > 4600 µM		
CCc1nc(N)nc(N)c1OCCCOc1ccccc1CCC(=O)O.Cl [P218]	1070 µg/mL and 2960 µM	204	1.0	408	Low (< 50% absorption (low))	0.24 10^−4 cm/s	0.41 ± 0.022	nmi	< 4.70	> 2000 µg/mL and > 5550 µM	408 µg/mL and 1130 µM	525 µg/mL and 1460 µM	0.080	solubility in all media tested ([1]; FaSSGF): 0.4 to 0.5 mg/mL
CCCCN(CCCC)CC(O)c1cc(Cl)cc2c1-c1ccc(Cl)cc1/C2=C/c1ccc(Cl)cc1 (stereo not drawn) [Lumefantrine]								nmi						microsomal CLint at 1 µM [4]: < 7 µL/min/mg; solubility at 1 h ([1]; FaSSGF, 37 °C, fassgf or other biorelevant, thermodynamic from solid): 12.6 µg/mL and 23.8 µM; solubility ([1]; FaSSIF-V2, 37 °C, fassif, thermodynamic from solid): 0.063 µg/mL and 0.119 µM; solubility ([1]; FeSSIF-V2, 37 °C, fessif, thermodynamic from solid): 14.4 µg/mL and 27.2 µM; solubility ([1]; phosphate buffered saline pH 7.4, 37 °C, pH 7.4, aqueous buffer, thermodynamic from solid): < 0.05 µg/mL and < 0.1 µM; pIC50 (CYP2C9): < 4.70
CC(C)(C)NCc1cc(Nc2ccnc3cc(Cl)ccc23)c2c(c1O)CCCC2 [Naphthoquine]	28.5 µg/mL and 69.5 µM	2250	11	410	High (> 85% absorption (high))	9.2 10^−4 cm/s	0.27 ± 0.035	nmi	< 4.70	> 2000 µg/mL and > 4880 µM	410 µg/mL and 1000 µM	941 µg/mL and 2300 µM	4.18	
COc1cc2[nH]c(C)c(-c3ccc(Oc4ccc(OC(F)(F)F)cc4)cc3)c(=O)c2cc1Cl [ELQ300]	0.102 µg/mL and 0.214 µM	3	13	0.520	High (> 85% absorption (high))	11 10^−4 cm/s			5.12	0.929 µg/mL and 1.95 µM	0.524 µg/mL and 1.10 µM	0.065 µg/mL and 0.137 µM		pKi (CYP2C9; microsomes): 5.27
CS(=O)(=O)O.FC1CCN(CCOc2ccc(C3CCC4(CC3)OOC3(OO4)C4CC5CC(C4)CC3C5)cc2)CC1 (stereo not drawn) [TDD-E209]	0.056 µg/mL and 0.112 µM	579	13	87.0	High (> 85% absorption (high))	11 10^−4 cm/s	0.0070 ± 0.0010			211 µg/mL and 421 µM	87.2 µg/mL and 174 µM	> 2000 µg/mL and > 4000 µM		
CC(C)(C)NCc1cc(C(C)(C)C)cc(-c2cnc(C(F)(F)F)c(F)c2)c1O [JPC3210]	0.800 µg/mL and 2.01 µM	51	13	7.60	High (> 85% absorption (high))	11 10^−4 cm/s	0.21 ± 0.012	nmi	< 4.70	213 µg/mL and 535 µM	7.60 µg/mL and 19.1 µM	131 µg/mL and 329 µM	5.30	
CN(C)C[c-]1cccc1CNc1ccnc2cc(Cl)ccc12.[Fe+2].c1cc[cH-]c1 (stereo not drawn) [Ferroquine]	4.9 µg/mL and 11 µM		2.7	320	High (> 85% absorption (high))	2.2 10^−4 cm/s	0.52 ± 0.031	nmi	< 4.70	> 2000 µg/mL and > 4600 µM	320 µg/mL and 738 µM	> 2000 µg/mL and > 4600 µM	3.39	SLAD (physchem; Ssi × V (500 mL) × Mp): 426 mg
CCN(CC)CCCNc1ccnc2cc(Cl)ccc12.Cl.Cl [AQ-13]	1480 µg/mL and 5070 µM	> 2250	2.2	> 2000	High (> 85% absorption (high))	1.9 10^−4 cm/s	0.85 ± 0.028	nmi	< 4.70	> 2000 µg/mL and > 6850 µM	> 2000 µg/mL and > 6850 µM	> 2000 µg/mL and > 6850 µM	1.30	
